Here are results for 10 molecules from patent US9873709B2 (priority 2013, dated 2018).

Each structure is given as a SMILES string.

The subject of this test is JAK1-dependent STAT6 phosphorylation downstream of IL-13 stimulation in TF-1 human erythroleukemia cells. Kind of test: cells. Particulars: TF-1, read-out: IL-13-pSTAT6 IC50.
As to `CCCC(=O)N1CC=C(c2cccn3nc(Nc4ccc(C(=O)N(C)C5CCN(C)CC5)cc4)nc23)CC1` [Example 2-289, 4-[[8-(1-butanoyl-3,6-dihydro-2H-pyridin-4-yl)-[1,2,4]triazolo[1,5-a]pyridin-2-yl]amino]-N-methyl-N-(1-methyl-4-piperidyl)benzamide], the IC50 (as a rule, the point on the concentration scale where inhibition reaches its midpoint) was determined as 42.9 nM. Regarding `CN1CCC(N(C)C(=O)c2ccc(Nc3nc4c(C5=CCN(C(=O)N6CC(C)(C)C6)CC5)cccn4n3)cc2)CC1` [Example 2-290, 4-[[8-[1-(3,3-dimethylazetidine-1-carbonyl)-3,6-dihydro-2H-pyridin-4-yl]-[1,2,4]triazolo[1,5-a]pyridin-2-yl]amino]-N-methyl-N-(1-methyl-4-piperidyl)benzamide], the IC50 is 37.7 nM. To `CCOC(=O)N1CC=C(c2cccn3nc(Nc4ccc(C(=O)NCCCN5CCN(C)CC5)cc4)nc23)CC1` [Example 2-291, ethyl 4-[2-[4-[3-(4-methylpiperazin-1-yl)propylcarbamoyl]anilino]-[1,2,4]triazolo[1,5-a]pyridin-8-yl]-3,6-dihydro-2H-pyridine-1-carboxylate] belongs 22.3 nM; to `CCOC(=O)N1CC=C(c2cccn3nc(Nc4ccc(C(=O)NCC5CCCN(C)C5)cc4)nc23)CC1` (stereo not shown) [Example 2-293, ethyl 4-[2-[4-[(1-methyl-3-piperidyl)methylcarbamoyl]anilino]-[1,2,4]triazolo[1,5-a]pyridin-8-yl]-3,6-dihydro-2H-pyridine-1-carboxylate], 29.5 nM.

For `CCOC(=O)N1CC=C(c2cccn3nc(Nc4ccc(C(=O)NCC5CCNC5)cc4)nc23)CC1` (stereo not shown) [Example 2-296, ethyl 4-[2-[4-(pyrrolidin-3-ylmethylcarbamoyl)anilino]-[1,2,4]triazolo[1,5-a]pyridin-8-yl]-3,6-dihydro-2H-pyridine-1-carboxylate], the IC50 was 383 nM. Take `CCOC(=O)N1CC=C(c2cccn3nc(Nc4ccc(C(=O)NCC5CC56CCNCC6)cc4)nc23)CC1` (stereo not shown) [Example 2-306, ethyl 4-[2-[4-(6-azaspiro[2.5]octan-2-ylmethylcarbamoyl)anilino]-[1,2,4]triazolo[1,5-a]pyridin-8-yl]-3,6-dihydro-2H-pyridine-1-carboxylate]: the half-maximal inhibitory concentration (IC50) was found to be 438 nM. As for `CCOC(=O)N1CC=C(c2cccn3nc(Nc4ccc(C(=O)N5CCC6CNCC65)cc4)nc23)CC1` (stereo not shown) [Example 2-308, ethyl 4-[2-[4-(3,3a,4,5,6,6a-hexahydro-2H-pyrrolo[2,3-c]pyrrole-1-carbonyl)anilino]-[1,2,4]triazolo[1,5-a]pyridin-8-yl]-3,6-dihydro-2H-pyridine-1-carboxylate], the IC50 was 76.1 nM. To `O=C(CCC(F)(F)F)N1CC=C(c2cccn3nc(Nc4ccc(C(=O)N5CC6CNCC6C5)cc4)nc23)CC1` (stereo not shown) [Example 2-313, 1-[4-[2-[4-(2,3,3a,4,6,6a-hexahydro-1H-pyrrolo[3,4-c]pyrrole-5-carbonyl)anilino]-[1,2,4]triazolo[1,5-a]pyridin-8-yl]-3,6-dihydro-2H-pyridin-1-yl]-4,4,4-trifluoro-butan-1-one] belongs 184 nM. Regarding `O=C(CCC(F)(F)F)N1CC=C(c2cccn3nc(Nc4ccc(C(=O)N5CCC6(CC5)CNC6)cc4)nc23)CC1` [Example 2-314, 1-[4-[2-[4-(2,7-diazaspiro[3.5]nonane-7-carbonyl)anilino]-[1,2,4]triazolo[1,5-a]pyridin-8-yl]-3,6-dihydro-2H-pyridin-1-yl]-4,4,4-trifluoro-butan-1-one], the IC50 amounted to 194 nM. Regarding `NC1CC2(CCN(C(=O)c3ccc(Nc4nc5c(C6=CCN(C(=O)CCC(F)(F)F)CC6)cccn5n4)cc3)CC2)C1` [Example 2-315, 1-[4-[2-[4-(2-amino-7-azaspiro[3.5]nonane-7-carbonyl)anilino]-[1,2,4]triazolo[1,5-a]pyridin-8-yl]-3,6-dihydro-2H-pyridin-1-yl]-4,4,4-trifluoro-butan-1-one], the IC50 stood at 109 nM.
